According to patent US12448382B2, “Heterocyclic compounds for mediating tyrosine kinase 2 activity” (GUANGZHOU INNOCARE PHARMA TECH CO., LTD., priority 2019, dated 2025):
pIC50: −log10 of the molar value.

Experiments:
[1] = biological target: T1, human recombinant JAK2 protein (Homo sapiens, UniProt O60674); experiment: JAK2 Inhibition Assay (HTRF kinase assay); assay type: biochemical; settings: human recombinant JAK2, 2.5 μM ATP substrate solution
T1 construct: purchased Carna Biosciences 08-045
T1 sequence (O60674 826-1132 limits assumed): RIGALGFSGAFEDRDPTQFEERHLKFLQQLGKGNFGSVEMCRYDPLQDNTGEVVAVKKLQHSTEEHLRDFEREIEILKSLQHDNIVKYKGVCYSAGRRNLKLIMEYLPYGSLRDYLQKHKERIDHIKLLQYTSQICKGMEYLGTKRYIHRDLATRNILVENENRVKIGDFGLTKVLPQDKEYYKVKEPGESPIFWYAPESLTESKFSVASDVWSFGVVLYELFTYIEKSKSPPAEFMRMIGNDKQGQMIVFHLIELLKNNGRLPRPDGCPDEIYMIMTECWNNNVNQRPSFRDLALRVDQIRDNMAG
In short: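 Recombinant human JAK2 was preincubated 15 min at room temperature with compound in buffer containing 5 mM MgCl2, 1 mM DTT and 0.01% Brij35. Substrate solution (2.5 μM ATP, 0.25 μM biotinylated TK substrate) was then added for 30 min. Phosphorylation was detected by HTRF (665/620 nm ratio; no-enzyme = 100% inhibition), and IC50 was fitted from an 8-point, 4-fold series.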

[2] = biological target: T2, human recombinant TYK2 protein (Homo sapiens, UniProt P29597); experiment: TYK2 Inhibition Assay (HTRF kinase assay); assay type: biochemical; settings: human recombinant TYK2, 11.25 μM ATP substrate solution
T2 construct: purchased Carna Biosciences 08-147
T2 sequence (P29597 871-1187 limits assumed): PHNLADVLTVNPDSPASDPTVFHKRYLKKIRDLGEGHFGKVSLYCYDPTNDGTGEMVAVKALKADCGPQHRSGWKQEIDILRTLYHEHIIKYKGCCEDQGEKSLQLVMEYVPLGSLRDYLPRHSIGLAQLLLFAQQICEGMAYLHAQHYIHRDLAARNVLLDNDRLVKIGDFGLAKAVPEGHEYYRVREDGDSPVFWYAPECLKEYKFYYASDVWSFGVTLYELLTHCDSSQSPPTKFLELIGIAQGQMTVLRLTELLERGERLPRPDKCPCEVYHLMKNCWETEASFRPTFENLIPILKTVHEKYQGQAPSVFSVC
In short: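 Recombinant human TYK2 was pre-incubated 15 min at room temperature with compound, then reacted for 40 min with biotinylated tyrosine-kinase substrate and ATP (substrate solution 11.25 μM ATP, 0.5 μM substrate; 5 mM MgCl2, 0.01% Brij35). Phosphorylation was read by HTRF 665/620 ratio, normalised to no-enzyme and no-compound controls, and IC50 was fitted from 8 4-fold dilutions.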

[3] = tested on: IL-12-induced IFN-γ secretion in NK92 cells; experiment: Inhibition of IL-12-induced IFN-γ Secretion in NK92 Cells (ELISA); assay type: cell-based, human; settings: Homo sapiens, 24 hours incubation, 8 concentration points, read-out: IC50 (NK92_IL12/IFNγ)
In short: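 NK92 cells (100,000/well, IL-2-free medium) rested overnight, then treated with compound plus IL-12 for 24 h at 37 °C. Secreted IFN-γ measured in supernatant by ELISA. Inhibition normalized to unstimulated and IL-12/0.2% DMSO controls; IC50 fitted from 8 concentrations.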

Structure (SMILES)	IC50 [1] [nM]	IC50 [2] [nM]	pIC50 [3]
Cn1cc(Nc2ncc(Cl)c(N3C[C@@]4(C)CN(S(C)(=O)=O)C[C@@]4(C)C3)n2)cn1 [Compound 34, 5-chloro-4-((3aR,6aS)-3a,6a-dimethyl-5-(methylsulfonyl)hexahydropyrrolo[3,4-c]pyrrol-2(1H)-yl)-N-(1-methyl-1H-pyrazol-4-yl)pyrimidin-2-amine]	1.8	0.6	6.54
Cn1cc(Nc2ncc(Cl)c(N3C[C@]4(C)CN(C(=O)CO)C[C@]4(C)C3)n2)cn1 [Compound 35, 1-((3aR,6aS)-5-(5-chloro-2-((1-methyl-1H-pyrazol-4-yl)amino)pyrimidin-4-yl)-3a,6a-dimethylhexahydropyrrolo[3,4-c]pyrrol-2(1H)-yl)-2-hydroxyethan-1-one]	3.3	0.6	6.34
CCC(=O)N1C[C@@]2(C)CN(c3nc(Nc4cnn(C)c4)ncc3Cl)C[C@@]2(C)C1 [Compound 36, 1-((3aR.,6aS)-5-(5-chloro-2-((1-methyl-1H-pyrazol-4-yl)amino)pyrimidin-4-yl)-3a,6a-dimethylhexahydropyrrolo[3,4-c]pyrrol-2(1H)-yl)propan-1-one]	4.1	1.8	6.23
COCC(=O)N1C[C@@]2(C)CN(c3nc(Nc4cnn(C)c4)ncc3Cl)C[C@@]2(C)C1 [Compound 37, 1-((3aR,6aS)-5-(5-chloro-2-((1-methyl-1H-pyrazol-4-yl)amino)pyrimidin-4-yl)-3a,6a-dimethylhexahydropyrrolo[3,4-c]pyrrol-2(1H)-yl)-2-methoxyethan-1-one]	15	12	5.68
Cn1cc(Nc2ncc(Cl)c(N3C[C@]4(C)CN(C(=O)C5COC5)C[C@]4(C)C3)n2)cn1 [Compound 39, ((3aR,6aS)-5-(5-chloro-2-((1-methyl-1H-pyrazol-4-yl)amino)pyrimidin-4-yl)-3a,6a-dimethylhexahydropyrrolo[3,4-c]pyrrol-2(1H)-yl)(oxetan-3-yl)methanone]	11	4.4	6.04
Cn1cc(Nc2ncc(Cl)c(N3C[C@]4(C)CN(CC(F)(F)F)C[C@]4(C)C3)n2)cn1 [Compound 40, 5-chloro-4-((3aR,6aS)-3a,6a-dimethyl-5-(2,2,2-trifluoroethyl)hexahydropyrrolo[3,4-c]pyrrol-2(1H)-yl)-N-(1-methyl-1H-pyrazol-4-yl)pyrimidin-2-amine]	1.2	0.4	6.37
CCS(=O)(=O)N1C[C@]2(C)CN(c3nc(Nc4cnn(C)c4)ncc3Cl)C[C@]2(C)C1 [Compound 41, 5-chloro-4-((3aR,6aS)-5-(ethylsulfonyl)-3a,6a-dimethylhexahydropyrrolo[3,4-c]pyrrol-2(1H)-yl)-N-(1-methyl-1H-pyrazol-4-yl)pyrimidin-2-amine]	1.7	1.3	6.20
Cn1cc(Nc2ncc(Cl)c(N3C[C@]4(C)CN(C(=O)C5(C#N)CC5)C[C@]4(C)C3)n2)cn1 [Compound 42, 1-((3aR,6aS)-5-(5-chloro-2-((1-methyl-1H-pyrazol-4-yl)amino)pyrimidin-4-yl)-3a,6a-dimethyloctahydropyrrolo[3,4-c]pyrrole-2-carbonyl)cyclopropane-1-carbonitrile]	20	5.7	5.46
Cn1cc(Nc2ncc(Cl)c(N3C[C@]4(C)CN(C(=O)C5(O)CC5)C[C@]4(C)C3)n2)cn1 [Compound 43, ((3aR,6aS)-5-(5-chloro-2-((1-methyl-1H-pyrazol-4-yl)amino)pyrimidin-4-yl)-3a,6a-dimethylhexahydropyrrolo[3,4-c]pyrrol-2(1H)-yl)(1-hydroxycyclopropyl)methanone]	18	4.5	5.47
Cn1cc(Nc2ncc(Cl)c(N3C[C@]4(C)CN(C(=O)C(C)(C)O)C[C@]4(C)C3)n2)cn1 [Compound 44, 1-((3aR,6aS)-5-(5-chloro-2((1-methyl-1H-pyrazol-4-yl)amino)pyrimidin-4-yl)-3a,6a-dimethylhexahydropyrrolo[3,4-c]pyrrol-2(1H)-yl)-2-hydroxy-2-methylpropan-1-one]	20	8.6	5.44
Cn1cc(Nc2ncc(Cl)c(N3C[C@]4(C)CN(C(=O)C(C)(C)C#N)C[C@]4(C)C3)n2)cn1 [Compound 45, 3-((3aR,6aS)-5-(5-chloro-2-((1-methyl-1H-pyrazol-4-yl)amino)pyrimidin-4-yl)-3a,6a-dimethylhexahydropyrrolo[3,4-c]pyrrol-2(1H)-yl)-2,2-dimethyl-3-oxopropanenitrile]	19	12	5.27
Cn1cc(Nc2ncc(Cl)c(N3C[C@]4(C)CN(C(=O)c5ccccn5)C[C@]4(C)C3)n2)cn1 [Compound 47, ((3aR,6aS)-5-(5-chloro-2-((1-methyl-1H-pyrazol-4-yl)amino)pyrimidin-4-yl)-3a,6a-dimethylhexahydropyrrolo[3,4-c]pyrrol-2(1H)-yl)(pyridin-2-yl)methanone]	51	13	5.10
Cn1cc(Nc2ncc(Cl)c(N3C[C@]4(C)CN(C(=O)CC(F)(F)F)C[C@]4(C)C3)n2)cn1 [Compound 48, 1-((3aR,6aS)-5-(5-chloro-2-((1-methyl-1H-pyrazol-4-yl)amino)pyrimidin-4-yl)-3a,6a-dimethylhexahydropyrrolo[3,4-c]pyrrol-2(1H)-yl)-3,3,3-trifluoropropan-1-one]	2.5	0.7	6.15

Other lines, results leading:

IC50 [1] [nM]	IC50 [2] [nM]	pIC50 [3]	Structure (SMILES)
0.1	0.3	7.37	Cn1cc(Nc2ncc(Cl)c(N3C[C@]4(C)CN(Cc5ccno5)C[C@]4(C)C3)n2)cn1 [Compound 50, 5-chloro-4-((3aR,6aS)-5-(isoxazol-5-ylmethyl)-3a,6a-dimethylhexahydropyrrolo[3,4-c]pyrrol-2(1H)-yl)-N(1-methyl-1H-pyrazol-4-yl)pyrimidin-2-amine]
7.3	2.7	6.22	CNC(=O)c1ccc(Nc2ncc(Cl)c(N3C[C@]4(C)CN(C(=O)C5CC5)C[C@]4(C)C3)n2)cn1 [Compound 51, 5-((5-chloro-4-((3aR,6aS)-5-(cyclopropanecarbonyl)-3a,6a-dimethylhexahydropyrrolo[3,4-c]pyrrol-2(1H)-yl)pyrimidin-2-yl)amino)-N-methylpicolinamide]
1.8	0.9	6.54	Cn1cc(Nc2ncc(Cl)c(N3C[C@]4(C)CN(C(=O)CC(F)F)C[C@]4(C)C3)n2)cn1 [Compound 52]
3.8	3.2	6.04	C[C@@]12CN(C(=O)C3CC3)C[C@]1(C)CN(c1nc(Nc3ccc(C(=O)N4CCOCC4)nc3)ncc1Cl)C2 [Compound 53, ((3aR,6aS)-5-(5-chloro-2-((6-(morpholine-4-carbonyl)pyridin-3-yl)amino)pyrimidin-4-yl)-3a,6a-dimethylhexahydropyrrolo[3,4-c]pyrrol-2(1H)-yl)(cyclopropyl)methanone]
0.9	0.2	6.03	Cn1cc(Nc2ncc(Cl)c(N3C[C@]4(C)CN(c5ccccn5)C[C@]4(C)C3)n2)cn1 [Compound 54, 5-chloro-4-((3aR,6aS)-3a,6a-dimethyl-5-(pyridin-2-yl)hexahydropyrrolo[3,4-c]pyrrol-2(1H)-yl)-N-(1-methyl-1H-pyrazol-4-yl)pyrimidin-2-amine]
3.7	1.7	6.38	Cc1cnc(Nc2cnn(C)c2)nc1N1C[C@@]2(C)CN(S(C)(=O)=O)C[C@@]2(C)C1 [Compound 55, 4-((3aR,6aS)-3a,6a-dimethyl-5-(methylsulfonyl)hexahydropyrrolo[3,4-c]pyrrol-2(1H)-yl)-5-methyl-N-(1-methyl-1H-pyrazol-4-yl)pyrimidin-2-amine]
2.5	1.7	6.30	Cc1cnc(Nc2cnn(C)c2)nc1N1C[C@]2(C)CN(C(=O)[C@@H]3CC3(F)F)C[C@]2(C)C1 [Compound 56, ((S)-2,2-difluorocyclopropyl)((3aR,6aS)-3a,6a-dimethyl-5-(5-methyl-2-((1-methyl-1H-pyrazol-4-yl)amino)pyrimidin-4-yl)hexahydropyrrolo[3,4-c]pyrrol-2(1H)-yl)methanone]
5.1	5	5.62	CN1CCN(C(=O)c2ccc(Nc3ncc(Cl)c(N4C[C@]5(C)CN(C(=O)C6CC6)C[C@]5(C)C4)n3)cn2)CC1 [Compound 59, ((3aR,6aS)-5-(5-chloro-2-((6-(4-rnethylpiperazine-1-carbonyl)pyridin-3-yl)amino)pyrimidin-4-yl)-3a,6a-dimethylhexahydropyrrolo[3,4-c]pyrrol-2(1H)-yl)(cyclopropyl)methanone]
